How the values were obtained:
[1] = tested on: penile NOS; assay: NOS activity in penile cytosol, (3-H) L-arginine to (3-H) citrulline conversion; assay type: biochemical, rat; settings: cytosol of inducer-treated rats
Description: Six adult rats were implanted with 100 ul pumps for 3 days, and then the pumps were replaced by similar ones with fresh solution as indicated in Example 2. Three animals had the pumps containing the inducer mix and three had saline as a control. At the end of the experiment the animals were anesthetized as indicated above and the penis (including the bulb), liver, and in some animals the cerebellum were surgically removed. The penile head and skin were excised and the organs were stored under liquid nitrogen.
NOS activity was determined from tissue homogenates from two treated and two control rats, not subjected to EFS in order to avoid the interference with residual L-NAME from the in vivo experiments and EFS-induced changes in NOS activity. […] After eliminating the residual (3-H)L-arginine through the resin, (3-H) citrulline was counted in the trichloroacetic acid ether-extracted supernatant. All values were corrected by the radioactivity eluted in time zero incubations.

[2] = tested on: Male Fischer 344 rats; assay: Erectile response (maximal intracavernosal pressure) to electrical field stimulation of the cavernosal nerve; assay type: in vivo, rat; settings: for inhibition of the erectile response: sub-optimal dose
Description: Male Fischer 344 rats from three age groups designated "adult" (5-month old), "old" (20 month old), and "very old" (28-32 month old) rats, were anesthetized with an intraperitoneal injection of sodium […] (pentobarbital) at 50 mg/kg. The definition of these age groups in terms of relative aging corresponds to conventional designations for the Fisher 344 strain of rats (maximal life span approximately 34-36 months; optimum breeding activity 2.5-8 months). The adult and very old rats were retired breeders whenever possible. Animals were maintained under controlled lighting and were treated according to NIH regulations. The number of animals in each group for each individual experiment is indicated in the corresponding figure.
A transversal suprapubic skin incision (5 mmm) was done to expose the penis angle and its proximal portion. The right corpora cavernosa was then cannulated with a 27-gauge needle attached to a vinyl tubing (Bolab/bb317-85 Arizona) which was connected with an ALZET^R osmotic pump (Alza Corporation, Palo Alto, Calif.). Each pump (100 or 200 ul reservoir volume, as indicated) contained a mix of E. coli lipopolysaccharide (LPS) at 1 ug/ml, recombinant rat […] (IFN-γ) at 2,500 U/ml, recombinant human tumor necrosis factor-(TNF-α) at 2,500 U/ml, and recombinant human interleukin-1β (IL-1β) at 50 ng/ml.
The needle and the tubing were fixed to the penis peripheral tissues by Mersilene* 6-0 suture and the osmotic pump was placed subcutaneously on the rat abdomen. […] The incision was closed by layer using Dexon* Plus 4-0 suture and the success of the operation was checked all throughout the experiment by observation of a normal recovery and urinary activity. These criteria were completed by verifying the absence of peripheral hematomas or inflammation when the pump was removed. Each pump delivered the inducer mix by osmotic pressure through the catheter directly into the corpora cavernosa, either at 1 ul/hr during 3 days (pump 1003D) or at 0.5 ul/hr during 14 days (pump 2002).
At the completion of each treatment rats were anesthetized as in Example 1 and the erectile response was measured by a modification of a published procedure. Briefly, the cavernosal nerve was surgically exposed and stimulated with a square pulse stimulator connected to a platinum bipolar electrode positioned on the nerve. Through a needle inserted into the cavernosa, the intracavernosal pressure was recorded with a pressure transducer connected to a recorder that was calibrated with a manometer in order to express the response in mm of mercury. The animals were reinjected every 45 min with 35 mg/kg of ketamine for the whole duration of the experiment (about 2-3 hours).
Each rat was submitted to the following sequential treatments done in duplicate: a) electrical field stimulation (EFS) at a frequency of 15 Hz for pulses of 30 sec, separated for 5 min intervals, for the voltage response curve, at […], 2.5, 5 and 10 volts, in this order; b) EFS at 10 volts with the nitric oxide synthase (NOS) inhibitor N -nitro-L-arginine methy ester (L-NAME) at 2 mg/kg, at a single dose per animal, recording 30 min. after injection. In some animals, the systemic blood pressure was measured at the beginning of the experiment, by intrafemoral cannulation and recording as above. Means and standard deviations were determined for the intracavernosal pressure values, and the statistical significance was obtained by the paired Student's t test.

[3] = tested on: rat penis smooth muscle cells (RPSMC); assay: Nitrite accumulation in medium of rat penis smooth muscle cell cultures (Greiss reagent); assay type: cell-based
Description: Primary cultures of RPSMC were initiated from small pieces of penile tissue excised from 3 months old Sprague Dawley rats, utilizing Dulbecco's modified Eagle medium (DMEM) with 20% fetal calf serum, at 37° C. in the presence of 5% CO2. Cells grown from the explants were then transferred to medium with 10% serum, and at the 4th to 10th passage (1:3 splits) they were utilized for the experiments, unless otherwise indicated. Alternatively, cells from the 4-8th passage stored under liquid nitrogen were used to reinitiate the cultures, and used for incubations on the following 2-4 passages. These cultures are considered to consist mainly of smooth muscle cells from the penis based on morphological and cytoimmunochemical criteria.
All experiments were conducted at 90-100% cell confluence on "Primaria" cultureware, usually 24-well plates, adding or not the inducers indicated in each experiment. When not specifically stated, the standard binary induction mix consisted of bacterial lipopolysaccharide (LPS) (10 ug/ml) and recombinant murine […] (INF-θ) (250 U/ml). Other substances to be tested were added as indicated to the serum-containing medium, and the incubation proceeded for the times indicated. The medium was always collected and stored for an indirect measurement of NO production based on the determination of its conversion into nitrites. The procedure was based on the application of the Greiss reagent, using 250 ul of the medium mixed with an equal volume of reagent. Each experimental condition was carried out in triplicate.

[4] = tested on: cNOS, iNOS; settings: cited from earlier work
[5] = supplemented with 1 or 10 ug/ml LPS, 48 hr incubation

COC(=O)[C@@H](N)CCCNC(=N)N[N+](=O)[O-] [L-NAME, N-nitro-L-arginine methyl ester]
inhibition of NOS activity in penile cytosol ([1]; 2 mM): 60-70% | fraction of maximal intracavernosal pressure remaining after L-NAME ([2]; adult rats treated with inducers, L-NAME 2 mg/kg, EFS 10 volts): 39% | fraction of maximal intracavernosal pressure remaining after L-NAME ([2]; adult rats without inducer treatment (separate study)): 62% | fraction of maximal intracavernosal pressure remaining after L-NAME ([2]; old rats treated with inducers, L-NAME 2 mg/kg, EFS 10 volts): 18% | fraction of maximal intracavernosal pressure remaining after L-NAME ([2]; old rats without inducer treatment (separate study)): 30% | inhibition of the erectile response ([2]; non-respondent rats after 14 days inducer treatment): normal | inhibition of the erectile response ([2]; respondent animals after 14 days inducer treatment, three age groups): over 95% | fraction of maximal intracavernosal pressure remaining after L-NAME ([2]; very old rats treated with inducers, L-NAME 2 mg/kg, EFS 10 volts): 28% | fraction of maximal intracavernosal pressure remaining after L-NAME ([2]; very old rats without inducer treatment (separate study)): 23% | inhibition at 2000 µM ([3]; Rattus norvegicus, 2 mM, RPSMC treated with standard induction mix, read-out: inhibition of nitrite release): ≤ 85%

N=C(NCCC[C@H](N)C(=O)O)N[N+](=O)[O-] [L-nitroarginine]
potency as inhibitor of cNOS relative to iNOS [4]: 1000 fold

N=C(N)NN [aminoguanidine]
effect on NOS activity in penile cytosol ([1]; 0.3 mM): not affected | isoform preference of NOS inhibition ([4]; specificity varies with the cell type): preferential inhibitor for iNOS

IL-1β: recombinant human interleukin-1 β
effectiveness compared with 500 U/ml INF-θ ([3]; 5 ng/ml with 10 ug/ml LPS, 48 hr): slightly more effective

TNF-α
effect on nitrite production ([3]; up to 500 u/ml, presence or absence of LPS, 48 hr): did not have any effect

B1: INF-θ: recombinant murine interferon-θ (in vitro); recombinant rat interferon-θ (IFN-γ) in vivo (protein, UniProt P01580 23-155, looked up)
Interferon gamma: HGTVIESLESLNNYFNSSGIDVEEKSLFLDIWRNWQKDGDMKILQSQIISFYLRLFEVLKDNQAISNNISVIESHLITTFFSNSKAKKDAFMSIAKFEVNNPQVQRQAFNELIRVVHQLLPESSLRKRKRSRC
modifications: rat IFN-gamma used in vivo
nitrites in culture medium, maximum ([3]; 50 to 500 U/ml, absence of LPS, 48 hr incubation): ≤ 45 µM | induction relative to the basal level [3, 5]: ~20 fold | nitrites in culture medium [3, 5]: up to 120 uM
